Experimental findings from patent US20220324835A1 (Nurix Therapeutics, Inc., priority 2018, published 2022) are described below.

Assay [1] deals with Cbl-b (residues 36-427) (Homo sapiens, UniProt Q13191). Put plainly: Cbl-b binding assay (SPR, Biacore T200). Conditions: 20° C., 1:1 binding model. An outline of the steps:
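Steps: capture protein on NeutrAvidin surface; inject compound dilutions (8 or 10 points from 100 or 50 μM) 50 s; allow 90-180 s dissociation; regenerate 20 s with 0.3 M NaCl. Runs at 20° C in HEPES pH 7.5/100 mM NaCl/2% DMSO; 1:1 fitting.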

Assay [2] deals with T-cell. Description: CD25 cell surface staining on T-cells co-stimulated with anti-CD3 and anti-CD28 antibody (Biological Example 2). Format: cell-based, human. The conditions noted are these: Homo sapiens, T-cell, read-out: CD25 staining Anti-CD3/Anti-CD28 stimulation; for fold induction at 0.3 µM: 0.3 μM Cbl-b inhibitor; for fold induction at 1 µM: 1 μM Cbl-b inhibitor; for fold induction at 4 µM: 4 μM Cbl-b inhibitor. The method in brief:
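T-cells were stimulated with anti-CD3 antibody alone or with anti-CD28 antibody, in the presence or absence of Cbl-b inhibitor. IL-2 secretion or CD25 surface staining was measured, and values expressed as fold over the uninhibited baseline […].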

Assay [3] addresses T1, Cbl-b (Homo sapiens, UniProt Q13191). Description: Cbl-b inhibition assay (Cbl-b activity assay, FRET, Biological Example 1; 100 mM NaCl, 60 nM Src kinase). The conditions noted are these: upper bound stated in text lists; read-out: IC50 values in the Cbl-b inhibition assay of Biological Example 1. The class given is biochemical. The method in brief: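 FRET read-out: loss of signal marks inhibition. Mix = biotin-Avi-Cbl-b (N-term), Src kinase, UbcH5B-Ub(Bodipy-FL, irreversible conjugate), streptavidin-Tb, assay buffer.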

Assay [4] addresses T1, Cbl-b. Put plainly: Cbl-b activity assay (Cbl-b inhibition assay), TR-FRET of Cbl-b interaction with UbcH5B-Ub. Format: biochemical. Conditions: assay buffer with 100 mM NaCl, 60 nM Src kinase; read-out: Cbl-b activity IC50. An outline of the steps:
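UbcH5B (C85K) conjugated to N-terminally Bodipy-Fluorescein-labeled ubiquitin served as the fluorescent partner. After compound preincubation, Src kinase (60 nM) with 1 mM ATP and 5 mM MgCl2 (final) was added for 1.5 h, followed by a further 1 h incubation. Some values were obtained with 50 mM NaCl and 30 nM Src.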

Where [5] appears, read: fold change over baseline, primary human total T-cells.
Where [6] appears, read: fold change over baseline (anti-CD3/anti-CD28 stimulated T-cells without inhibitor).

Where two headings read alike, the source gives them in different places. Where only a bound is given, the exact number is not on record here.

Sequence of Cbl-b (residues 36-427) (Q13191 36-427): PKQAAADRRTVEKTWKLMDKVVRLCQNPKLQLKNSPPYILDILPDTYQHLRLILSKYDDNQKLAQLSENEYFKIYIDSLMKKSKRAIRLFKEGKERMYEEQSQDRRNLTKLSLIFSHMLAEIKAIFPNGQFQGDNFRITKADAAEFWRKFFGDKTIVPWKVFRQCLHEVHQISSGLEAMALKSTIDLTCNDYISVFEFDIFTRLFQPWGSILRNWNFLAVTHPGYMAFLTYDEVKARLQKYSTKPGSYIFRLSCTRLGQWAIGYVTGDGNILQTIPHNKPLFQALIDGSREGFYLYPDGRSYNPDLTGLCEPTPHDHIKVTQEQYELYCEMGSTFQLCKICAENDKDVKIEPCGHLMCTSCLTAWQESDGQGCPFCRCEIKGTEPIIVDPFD
T1 sequence (Q13191 36-427): as above

`Cn1cnnc1[C@@H]1C[C@@H]1c1cccc(NC(=O)c2nc3c(C(F)(F)F)cccc3[nH]2)c1` [Compound 332, N-(3-((1S,2R)-2-(4-methyl-4H-1,2,4-triazol-3-yl)cyclopropyl)phenyl)-4-(trifluoromethyl)-1H-benzo[d]imidazole-2-carboxamide]: in assay [1], the Kd lay within 301 to 1000 nM. Also, in assay [2] (setting [5]), the fold induction at 0.3 µM fell in the range of 1.01 to 1.3, the fold induction at 1 µM fell in the range of 1.01 to 1.3 and the fold induction at 4 µM was in the range of 1.01 to 1.3. Also, in assay [3], the IC50 is ≤ 300 nM. Further, the IC50 in assay [4] was in the range of 100 to 300 nM.
For `Cc1cc(C(=O)Nc2cccc([C@@](C)(F)C(F)(F)c3nncn3C)c2)nc(C2CC2)n1` [Compound 344, (R)-2-Cyclopropyl-6-methyl-N-(3-(1,1,2-trifluoro-1-(4-methyl-4H-1,2,4-triazol-3-yl)propan-2-yl)phenyl)pyrimidine-4-carboxamide], the Kd in assay [1] is < 100 nM. Also, in assay [2] (setting [5]), the fold induction at 0.3 µM fell in the range of 1.01 to 1.3, the fold induction at 1 µM was in the range of 1.31 to 1.5 and the fold induction at 4 µM lay within 1.31 to 1.5. Besides, the IC50 in assay [3] is ≤ 300 nM. Further, the IC50 in assay [4] lay in the range of 100 to 300 nM.
In assay [1], `C[C@H](Cc1nncn1C)c1cc(NCCO)nc(N2Cc3c(cccc3C(F)(F)F)C2=O)c1` [Compound 357, (R)-2-(6-(2-hydroxyethylamino)-4-(1-(4-methyl-4H-1,2,4-triazol-3-yl)propan-2-yl)pyridin-2-yl)-4-(trifluoromethyl)isoindolin-1-one] gave a Kd of 100 to 300 nM. In addition, in assay [2] (setting [5]), the fold induction at 0.3 µM was 1.01 to 1.3, the fold induction at 1 µM was in the range of 1.01 to 1.3 and the fold induction at 4 µM is 1.01 to 1.3. The IC50 in assay [3] is ≤ 300 nM. Besides, the IC50 in assay [4] is 100 to 300 nM.
For `C[C@H](Cc1nncn1C)c1cc(-c2cn[nH]c2)nc(N2Cc3c(cccc3C(F)(F)F)C2=O)c1` [Example 684, (R)-2-(4-(1-(4-methyl-4H-1,2,4-triazol-3-yl)propan-2-yl)-6-(1H-pyrazol-4-yl)pyridin-2-yl)-4-(trifluoromethyl)isoindolin-1-one], the Kd in assay [1] fell in the range of 1000 to 3000 nM. Moreover, the fold induction at 0.3 µM in assay [2] (setting [6]) was < 1. Further, the fold induction at 1 µM in assay [2] (setting [6]) was < 1. Besides, the results for the IC50 in assay [3] and in assay [4] were ≤ 1000 nM and 301 to 1000 nM, respectively.

The Kd is the constant that tells how readily two partners part at equilibrium. Read a high Kd as a looser complex. Broadly, the IC50 is the concentration needed to halve the response being measured.
